IC50 data for 36 compounds are collected here from patent US10961238B2, “Modulators of hedgehog (Hh) signaling pathway” (E-THERAPEUTICS PLC, priority 2016, dated 2021).

The experiment concerns C3H10T1/2 cells. Kind of experiment: C3H assay: differentiation of C3H10T1/2 cells by mSHH, measurement of alkaline phosphatase. Format: cell-based, mouse. As to conditions: Mus musculus, C3H 10T1/2; C3H10T1/2 cells stimulated with mSHH for 72 hours; alkaline phosphatase activity; read-out: IC50 Ranges.
Turning to `CN(C)S(=O)(=O)N1CC(S(=O)(=O)N2CCC(c3c[nH]c4ncccc34)CC2)C1` [Compound 90, N,N-dimethyl-3-[4-(1H-pyrrolo[2,3-b]pyridin-3-yl)piperidin-1-yl]sulfonylaze-tidine-1-sulfonamide], the IC50 is 100 to 1000 nM.

Turning to `CS(=O)(=O)N1CC(S(=O)(=O)N2CCC(c3c[nH]c4ncccc34)CC2)C1` [Compound 91, 3-[1-(1-Methylsulfonylazetidin-3-yl)sulfonyl-4-piperidyl]-1H-pyrrolo[2,3-b]pyridine], the half-inhibitory concentration (IC50) lay in the range of 100 to 1000 nM. `CN(C)S(=O)(=O)n1cc(C2CCN(S(=O)(=O)C3CN(C(=O)OC(C)(C)C)C3)CC2)c2cccnc21` [Compound 92, tert-butyl 3-[4-[1-(dimethylsulfamoyl)pyrrolo[2,3-b]pyridin-3-yl]piperidin-1-yl]sulfonylaze-tidine-1-carboxylate]: the IC50 was 1000 to 10000 nM. To `CC(C)(C)OC(=O)N1CC(S(=O)(=O)N2CCC(c3cn(S(C)(=O)=O)c4ncccc34)CC2)C1` [Compound 93, tert-Butyl 3-[[4-(1-methylsulfonylpyrrolo[2,3-b]pyridin-3-yl)-1-piperidyl]sulfonyl]azetidine-1-carboxylate] belongs 1000 to 10000 nM; to `Cn1cc(C2CCN(S(=O)(=O)C3CN(C(=O)OC(C)(C)C)C3)CC2)c2cccnc21` [Compound 94, tert-Butyl 3-[[4-(1-methylpyrrolo[2,3-b]pyridin-3-yl)-1-piperidyl]sulfonyl]azetidine-1-carboxylate], 100 to 1000 nM; to `Cc1nn(C)c(C)c1CNC(=O)N1CC(S(=O)(=O)N2CCC(c3c[nH]c4ncccc34)CC2)C1` [Compound 95, 3-[4-(1H-pyrrolo[2,3-b]pyridin-3-yl)piperidin-1-yl]sulfonyl-N-[(1,3,5-trimethylpyrazol-4-yl)methyl]azetidine-1-carboxamide], 100 to 1000 nM. To `O=C(Nc1cccnc1)N1CC(S(=O)(=O)N2CCC(c3c[nH]c4ncccc34)CC2)C1` [Compound 96, N-pyridin-3-yl-3-[4-(1H-pyrrolo[2,3-b]pyridin-3-yl)piperidin-1-yl]sulfonylaze-tidine-1-carboxamide] belongs 10 to 100 nM. Turning to `CC(C)NC(=O)N1CC(S(=O)(=O)N2CCC(c3c[nH]c4ncccc34)CC2)C1` [Compound 98, N-propan-2-yl-3-[4-(1H-pyrrolo[2,3-b]pyridin-3-yl)piperidin-1-yl]sulfonylaze-tidine-1-carboxamide], the IC50 fell in the range of 100 to 1000 nM.

For `O=C(NCc1ccco1)N1CC(S(=O)(=O)N2CCC(c3c[nH]c4ncccc34)CC2)C1` [Compound 99, N-(furan-2-ylmethyl)-3-[4-(1H-pyrrolo[2,3-b]pyridin-3-yl)piperidin-1-yl]sulfonylaze-tidine-1-carboxamide], the half-inhibitory concentration (IC50) lay in the range of 100 to 1000 nM.

Consider `CC(C)(C)OC(=O)N1CC(S(=O)(=O)N2CCC(c3cnc4ccccn34)CC2)C1` [Compound 100, tert-butyl 3-(4-imidazo[1,2-a]pyridin-3-ylpiperidin-1-yl)sulfonylaze-tidine-1-carboxylate], for which the half-inhibitory concentration (IC50) lay in the range of 100 to 1000 nM. To `CC(C)(C)OC(=O)N1CC(S(=O)(=O)N2CCC(c3cnc4n3CCCC4)CC2)C1` [Compound 101, tert-butyl 3-[4-(5,6,7,8-tetrahydroimidazo [1,2-a]pyridin-3-yl)piperidin-1-yl]sulfonylaze-tidine-1-carboxylate] belongs 1000 to 10000 nM; to `Cn1cncc1C1CCN(S(=O)(=O)C2CN(C(=O)OC(C)(C)C)C2)CC1` [Compound 102, tert-butyl 3-[4-(3-methylimidazol-4-yl)piperidin-1-yl]sulfonylaze-tidine-1-carboxylate], 1000 to 10000 nM. As for `CCOC(=O)N1CCC(S(=O)(=O)N2CCC(c3ccncc3)CC2)CC1` [Compound 103, ethyl 4-(4-pyridin-4-ylpiperidin-1-yl)sulfonylpiper-idine-1-carboxylate], the figure is 1000 to 10000 nM; as for `O=C(NC1CCC1)N1CCC(S(=O)(=O)N2CCC(c3ccncc3)CC2)CC1` [Compound 104, N-cyclobutyl-4-(4-pyridin-4-ylpiperidin-1-yl)sulfonylpiper-idine-1-carboxamide], 1000 to 10000 nM. To `CC(C)OC(=O)N1CCC(S(=O)(=O)N2CCC(c3ccncc3)CC2)CC1` [Compound 105, propan-2-yl 4-(4-pyridin-4-ylpiperidin-1-yl)sulfonylpiper-idine-1-carboxylate] belongs 1000 to 10000 nM; to `COC(=O)N1CCC(S(=O)(=O)N2CCC(c3ccncc3)CC2)CC1` [Compound 106, methyl 4-(4-pyridin-4-ylpiperidin-1-yl)sulfonylpiper-idine-1-carboxylate], 1000 to 10000 nM.

For the compound `CC(C)(C)NC(=O)N1CC(S(=O)(=O)N2CCC(c3c[nH]c4ncccc34)CC2)C1` [Compound 108, N-tert-butyl-3-[4-(1H-pyrrolo[2,3-b]pyridin-3-yl)piperidin-1-yl]sulfonylaze-tidine-1-carboxamide], the IC50 was in the range of 10 to 100 nM. To `CC(C)(C)OC(=O)N1CC(S(=O)(=O)N2CCC(c3c[nH]c4ncccc34)CC2)C1` [Compound 110, tert-butyl 3-[4-(1H-pyrrolo[2,3-b]pyridin-3-yl)piperidin-1-yl]sulfonylaze-tidine-1-carboxylate] belongs 10 to 100 nM. To `CC(C)(C)NC(=O)N1CCC(S(=O)(=O)N2CCC(c3ccncc3)CC2)CC1` [Compound 111, N-tert-butyl-4-(4-pyridin-4-ylpiperidin-1-yl)sulfonylpiper-idine-1-carboxamide] belongs 100 to 1000 nM; to `O=S(=O)(C1CCN(c2ccccc2)CC1)N1CCC(c2ccncc2)CC1` [Compound 113, 4-[1-[(1-Phenyl-4-piperidyl)sulfonyl]-4-piperidyl]pyridine], 1000 to 10000 nM; to `O=C(Oc1ccccc1)N1CCC(S(=O)(=O)N2CCC(c3ccncc3)CC2)CC1` [Compound 114, phenyl 4-(4-pyridin-4-ylpiperidin-1-yl)sulfonylpiper-idine-1-carboxylate], 1000 to 10000 nM. As for `CC(C)(C)OC(=O)N1CCC(S(=O)(=O)N2CCC(c3c[nH]c4ncc(C(F)(F)F)cc34)CC2)CC1` [Compound 116], the figure is 100 to 1000 nM; as for `Cn1cc(-c2cnc3[nH]cc(C4CCN(S(=O)(=O)C5CCN(C(=O)OC(C)(C)C)CC5)CC4)c3c2)cn1` [Compound 117, tert-butyl 4-[4-[5-(1-methylpyrazol-4-yl)-1H-pyrrolo [2,3-b]pyridin-3-yl]piperidin-1-yl]sulfonylpiper-idine-1-carboxylate], 1000 to 10000 nM. Take `O=S(=O)(C1CN(c2ccccn2)C1)N1CCC(c2c[nH]c3ncccc23)CC1` [Compound 118, 3-[1-[1-(2-Pyridyl)azetidin-3-yl]sulfonyl-4-piperidyl]-1H-pyrrolo[2,3-b]pyridine]: the concentration for half-maximal inhibition (IC50) lay in the range of 10 to 100 nM. As for `CC(C)N(C)C(=O)N1CC(S(=O)(=O)N2CCC(c3c[nH]c4ncccc34)CC2)C1` [Compound 119, N-methyl-N-propan-2-yl-3-[4-(1H-pyrrolo [2,3-b]pyridin-3-yl)piperidin-1-yl]sulfonylaze-tidine-1-carboxamide], the figure is 10 to 100 nM.

As for `CC(C)(C)OC(=O)N1CC(S(=O)(=O)N2CCC(c3c[nH]c4ncc(C(F)(F)F)cc34)CC2)C1` [Compound 121, tert-butyl 3-[4-[5-(trifluoromethyl)-1H-pyrrolo[2,3-b]pyridin-3-yl]piperidin-1-yl]sulfonylaze-tidine-1-carboxylate], the half-maximal inhibitory concentration (IC50) was in the range of 1000 to 10000 nM. To `COc1cnc2[nH]cc(C3CCN(S(=O)(=O)C4CN(C(=O)OC(C)(C)C)C4)CC3)c2c1` [Compound 123, tert-butyl 3-[4-(5-methoxy-1H-pyrrolo[2,3-b]pyridin-3-yl)piperidin-1-yl]sulfonylaze-tidine-1-carboxylate] belongs 100 to 1000 nM.

For the compound `CC(C)(C)OC(=O)N1CC(S(=O)(=O)N2CCC(c3c[nH]c4ccccc34)CC2)C1` [Compound 125, tert-butyl 3-[4-(1H-indol-3-yl)piperidin-1-yl]sulfonylaze-tidine-1-carboxylate], the half-inhibitory concentration (IC50) is 10 to 100 nM. As to `COC(=O)N1CC(S(=O)(=O)N2CCC(c3coc4cccnc34)CC2)C1` [Compound 126, methyl 3-(4-furo [3,2-b]pyridin-3-ylpiperidin-1-yl)sulfonylaze-tidine-1-carboxylate], the IC50 was in the range of 100 to 1000 nM.

As to `CC(C)(C)OC(=O)N1CC(S(=O)(=O)N2CCC(C3COc4cccnc43)CC2)C1` (stereo not drawn) [Compound 127, tert-butyl 3-[4-(2,3-dihydrofuro[3,2-b]pyridin-3-yl)piperidin-1-yl]sulfonylaze-tidine-1-carboxylate], the IC50 lay within 100 to 1000 nM. To `CC(C)(C)OC(=O)N1CC(S(=O)(=O)N2CCC(c3c[nH]c4nccnc34)CC2)C1` [Compound 128, tert-Butyl 3-[[4-(5H-pyrrolo[2,3-b]pyrazin-7-yl)-1-piperidyl]sulfonyl] azetidine-1-carboxylate] belongs 10 to 100 nM; to `Cc1ccc(S(=O)(=O)n2cc(C3CCN(S(=O)(=O)C4CN(C(=O)OC(C)(C)C)C4)CC3)c3nccnc32)cc1` [Compound 129, tert-butyl 3-[4-[5-(4-methylphenyl)-sulfonylpyrrolo[2,3-b]pyrazin-7-yl]piperidin-1-yl]sulfonylaze-tidine-1-carboxylate], 1000 to 10000 nM; to `CC(C)(C)OC(=O)N1CC(S(=O)(=O)N2CCC(c3cnn4ccncc34)CC2)C1` [Compound 130, tert-butyl 3-(4-pyrazolo[1,5-a]pyrazin-3-ylpiperidin-1-yl)sulfonylaze-tidine-1-carboxylate], 1000 to 10000 nM. For `CC(C)(C)OC(=O)N1CCC(S(=O)(=O)N2CCC(c3coc4cccnc34)CC2)CC1` [Compound 132, tert-butyl 4-(4-furo[3,2-b]pyridin-3-ylpiperidin-1-yl)sulfonylpiper-idine-1-carboxylate], the IC50 fell in the range of 100 to 1000 nM. With `CC(C)(C)OC(=O)N1CCC(S(=O)(=O)N2CCC(c3c[nH]c4ccccc34)CC2)CC1` [Compound 133, tert-butyl 4-[4-(1H-indol-3-yl)piperidin-1-yl]sulfonylpiper-idine-1-carboxylate], the IC50 lay in the range of 100 to 1000 nM. As for `Cc1noc(C)c1CCN1CC(S(=O)(=O)N2CCC(c3coc4cccnc34)CC2)C1` [Compound 134, 3-[1-[1-[2-(3,5-dimethyl-1,2-oxazol-4-yl)ethyl]azetidin-3-yl]sulfonylpiper-idin-4-yl]furo [3,2-b]pyridine], the figure is 100 to 1000 nM.
